In the first test the test system is HCT116. In words: In Vitro cytotoxicity measured by the cell colony formation assay. The format is cell-based, human. The conditions noted are these: HCT116 colony formation; 72 h with drug, colonies counted after 7 days; ID50 = concentration producing 50% inhibition of colony formation; read-out: IN VITRO ID 50 HCT116. The gist of the method: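 Four hundred cells per dish in McCoy's 5a medium with 10% FBS were allowed to attach for 5 h at 37 °C. They were then exposed to compound for 72 h at 37 °C, added as a 10× stock made fresh in medium. After HBSS rinsing and refeeding, colonies were counted after 7 days.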
As for `CCCC(=O)N[C@@H](c1cccs1)[C@@H](O)C(=O)O[C@H]1C[C@@]2(O)[C@@H](OC(=O)c3ccccc3)[C@@H]3[C@]4(OC(C)=O)CO[C@@H]4C[C@H](O)[C@@]3(C)C(=O)[C@H](OC(=O)CCC)C(=C1C)C2(C)C` [Compound 3148], the IC50 was less than 1 nM. Still for that read-out and setting: as for `CC=CC(=O)OC1C(=O)C2(C)C(O)CC3OCC3(OC(C)=O)C2C(OC(=O)c2ccccc2)C2(O)CC(OC(=O)C(O)C(NC(=O)OC(C)(C)C)c3ccncc3)C(C)=C1C2(C)C` (stereo not drawn) [Compound 2366], the figure is less than 1 nM.

Still in this test, the particulars now being: Homo sapiens, HCT-116; read-out: IN VITRO ID 50 HCT116.
On to `CC=CC(=O)NC(c1ccoc1)C(O)C(=O)OC1CC2(O)C(OC(=O)c3ccccc3)C3C4(OC(C)=O)COC4CC(O)C3(C)C(=O)C(OC(=O)C3CC3)C(=C1C)C2(C)C` (stereo not drawn) [Compound 4944], for which the IC50 is less than 1 nM.

`C/C=C/C(=O)N[C@@H](c1ccco1)[C@@H](O)C(=O)O[C@H]1C[C@@]2(O)[C@@H](OC(=O)c3ccccc3)[C@@H]3[C@]4(OC(C)=O)CO[C@@H]4C[C@H](O)[C@@]3(C)C(=O)[C@H](OC(=O)C3CC3)C(=C1C)C2(C)C` [Compound 3971]: the IC50 is less than 1 nM. With `CC(=O)O[C@@]12CO[C@@H]1C[C@H](O)[C@@]1(C)C(=O)[C@H](OC(=O)C3CC3)C3=C(C)[C@@H](OC(=O)[C@H](O)[C@@H](NC(=O)OC(C)C)c4cccs4)C[C@@](O)([C@@H](OC(=O)c4ccccc4)[C@H]21)C3(C)C` [Compound 3071], the IC50 is less than 1 nM. Still for that read-out and setting: as for `CCOC(=O)N[C@@H](c1cccs1)[C@@H](O)C(=O)O[C@H]1C[C@@]2(O)[C@@H](OC(=O)c3ccccc3)[C@@H]3[C@]4(OC(C)=O)CO[C@@H]4C[C@H](O)[C@@]3(C)C(=O)[C@H](OC(=O)CC)C(=C1C)C2(C)C` [Compound 3370], the figure is less than 1 nM; as for `CCC(=O)O[C@H]1C(=O)[C@@]2(C)[C@H]([C@H](OC(=O)c3ccccc3)[C@]3(O)C[C@H](OC(=O)[C@H](O)[C@@H](NC(=O)OC(C)(C)C)C4CCC4)C(C)=C1C3(C)C)[C@]1(OC(C)=O)CO[C@@H]1C[C@@H]2O` [Compound 0596], less than 10 nM. The same measure, in the same setting: as for `CC(=O)O[C@@]12CO[C@@H]1C[C@H](O)[C@@]1(C)C(=O)[C@H](OC(=O)C3CC3)C3=C(C)[C@@H](OC(=O)[C@H](O)[C@@H](NC(=O)OCC(C)C)c4cccs4)C[C@@](O)([C@@H](OC(=O)c4ccccc4)[C@H]21)C3(C)C` [Compound 3129], the figure is less than 10 nM.

As to `CC(=O)O[C@@]12CO[C@@H]1C[C@H](O)[C@@]1(C)C(=O)[C@H](OC(=O)C3CC3)C3=C(C)[C@@H](OC(=O)[C@H](O)[C@@H](NC(=O)c4ccccc4)c4ccccc4)C[C@@](O)([C@@H](OC(=O)c4ccccc4)[C@H]21)C3(C)C` [Compound 0937], the IC50 was less than 10 nM. Regarding `CC(=O)O[C@@]12CO[C@@H]1C[C@H](O)[C@@]1(C)C(=O)[C@H](OC(=O)c3cccs3)C3=C(C)[C@@H](OC(=O)[C@H](O)[C@@H](NC(=O)OC(C)(C)C)c4ccc([N+](=O)[O-])cc4)C[C@@](O)([C@@H](OC(=O)c4ccccc4)[C@H]21)C3(C)C` [Compound 1911], the IC50 was less than 10 nM.

Consider `CCCC(=O)O[C@H]1C(=O)[C@@]2(C)[C@H]([C@H](OC(=O)c3ccccc3)[C@]3(O)C[C@H](OC(=O)[C@H](O)[C@@H](NC(=O)OCC)c4cccs4)C(C)=C1C3(C)C)[C@]1(OC(C)=O)CO[C@@H]1C[C@@H]2O` [Compound 3096], for which the IC50 was less than 1 nM. Regarding `CC(=O)O[C@@]12CO[C@@H]1C[C@H](O)[C@@]1(C)C(=O)[C@H](OC(=O)C3CC3)C3=C(C)[C@@H](OC(=O)[C@H](O)[C@@H](NC(=O)OC(C)(C)C)c4ccoc4)C[C@@](O)([C@@H](OC(=O)c4ccccc4)[C@H]21)C3(C)C` [Compound 2781], the IC50 was less than 1 nM. In the case of `CCCC(=O)O[C@H]1C(=O)[C@@]2(C)[C@H]([C@H](OC(=O)c3ccccc3)[C@]3(O)C[C@H](OC(=O)[C@H](O)[C@@H](NC(=O)c4cccs4)c4cccs4)C(C)=C1C3(C)C)[C@]1(OC(C)=O)CO[C@@H]1C[C@@H]2O` [Compound 3408], the IC50 was less than 1 nM. Take `CCCC(=O)O[C@H]1C(=O)[C@@]2(C)[C@H]([C@H](OC(=O)c3ccccc3)[C@]3(O)C[C@H](OC(=O)[C@H](O)[C@@H](NC(=O)OC(C)(C)C)c4ccncc4)C(C)=C1C3(C)C)[C@]1(OC(C)=O)CO[C@@H]1C[C@@H]2O` [Compound 0978]: the IC50 is less than 1 nM. Consider `CC(=O)OC12COC1CC(O)C1(C)C(=O)C(OC(=O)C(C)C)C3=C(C)C(OC(=O)C(O)C(NC(=O)OC(C)(C)C)c4cccs4)CC(O)(C(OC(=O)c4ccccc4)C21)C3(C)C` (stereo not drawn) [Compound 2287], for which the IC50 is less than 1 nM. On the same count and under the same terms, as for `CCCC(=O)O[C@H]1C(=O)[C@@]2(C)[C@H]([C@H](OC(=O)c3ccccc3)[C@]3(O)C[C@H](OC(=O)[C@H](O)[C@@H](NC(=O)OC(C)(C)C)c4ccccc4)C(C)=C1C3(C)C)[C@]1(OC(C)=O)CO[C@@H]1C[C@@H]2O` [Compound 1060], the figure is less than 1 nM. Still for that read-out and setting: as for `CCC(=O)O[C@H]1C(=O)[C@@]2(C)[C@H]([C@H](OC(=O)c3ccccc3)[C@]3(O)C[C@H](OC(=O)[C@H](O)[C@@H](NC(=O)c4ccccc4)c4cccnc4)C(C)=C1C3(C)C)[C@]1(OC(C)=O)CO[C@@H]1C[C@@H]2O` [Compound 0647], the figure is 12 nM; as for `CCCC(=O)N[C@@H](c1ccco1)[C@@H](O)C(=O)O[C@H]1C[C@@]2(O)[C@@H](OC(=O)c3ccccc3)[C@@H]3[C@]4(OC(C)=O)CO[C@@H]4C[C@H](O)[C@@]3(C)C(=O)[C@H](OC(=O)CC)C(=C1C)C2(C)C` [Compound 3219], less than 1 nM. Turning to `CCCC(=O)O[C@H]1C(=O)[C@@]2(C)[C@H]([C@H](OC(=O)c3ccccc3)[C@]3(O)C[C@H](OC(=O)[C@H](O)[C@@H](NC(=O)OC(C)C)c4cccs4)C(C)=C1C3(C)C)[C@]1(OC(C)=O)CO[C@@H]1C[C@@H]2O` [Compound 3909], the IC50 is less than 1 nM.

For the molecule `CC(=O)O[C@@]12CO[C@@H]1C[C@H](O)[C@@]1(C)C(=O)[C@H](OC(=O)C3CC3)C3=C(C)[C@@H](OC(=O)[C@H](O)[C@@H](NC(=O)c4ccccc4)c4cccs4)C[C@@](O)([C@@H](OC(=O)c4ccccc4)[C@H]21)C3(C)C` [Compound 0919], the IC50 is less than 1 nM. With `CCC(=O)O[C@H]1C(=O)[C@@]2(C)[C@H]([C@H](OC(=O)c3ccccc3)[C@]3(O)C[C@H](OC(=O)[C@H](O)[C@@H](NC(=O)OC(C)(C)C)C(C)C)C(C)=C1C3(C)C)[C@]1(OC(C)=O)CO[C@@H]1C[C@@H]2O` [Compound 0583], the IC50 is less than 10 nM. Consider `CC(=O)O[C@@]12CO[C@@H]1C[C@H](O)[C@@]1(C)C(=O)[C@H](OC(=O)C3CC3)C3=C(C)[C@@H](OC(=O)[C@H](O)[C@@H](NC(=O)OC(C)(C)C)c4ccc([N+](=O)[O-])cc4)C[C@@](O)([C@@H](OC(=O)c4ccccc4)[C@H]21)C3(C)C` [Compound 0879], for which the IC50 is less than 1 nM. Turning to `CC(=O)O[C@@]12CO[C@@H]1C[C@H](O)[C@@]1(C)C(=O)[C@H](OC(=O)c3cccs3)C3=C(C)[C@@H](OC(=O)[C@H](O)[C@H](C=C(C)C)NC(=O)OC(C)(C)C)C[C@@](O)([C@@H](OC(=O)c4ccccc4)[C@H]21)C3(C)C` [Compound 1879], the IC50 is less than 10 nM. With `CC(=O)O[C@@]12CO[C@@H]1C[C@H](O)[C@@]1(C)C(=O)[C@H](OC(=O)c3ccco3)C3=C(C)[C@@H](OC(=O)[C@H](O)[C@H](C=C(C)C)NC(=O)OC(C)(C)C)C[C@@](O)([C@@H](OC(=O)c4ccccc4)[C@H]21)C3(C)C` [Compound 2101], the IC50 was less than 1 nM.

As for `CCC(=O)O[C@H]1C(=O)[C@@]2(C)[C@H]([C@H](OC(=O)c3ccccc3)[C@]3(O)C[C@H](OC(=O)[C@H](O)[C@@H](NC(=O)OC(C)(C)C)c4ccoc4)C(C)=C1C3(C)C)[C@]1(OC(C)=O)CO[C@@H]1C[C@@H]2O` [Compound 0549], the IC50 was less than 10 nM. Consider `CCCC(=O)N[C@@H](c1ccco1)[C@@H](O)C(=O)O[C@H]1C[C@@]2(O)[C@@H](OC(=O)c3ccccc3)[C@@H]3[C@]4(OC(C)=O)CO[C@@H]4C[C@H](O)[C@@]3(C)C(=O)[C@H](OC(=O)CCC)C(=C1C)C2(C)C` [Compound 3222], for which the IC50 was less than 1 nM. Still for that read-out and setting: as for `CC(=O)O[C@@]12CO[C@@H]1C[C@H](O)[C@@]1(C)C(=O)[C@H](OC(=O)C3CC3)C3=C(C)[C@@H](OC(=O)[C@H](O)[C@@H](NC(=O)OC(C)(C)C)c4ccsc4)C[C@@](O)([C@@H](OC(=O)c4ccccc4)[C@H]21)C3(C)C` [Compound 2794], the figure is less than 1 nM; as for `CCCC(=O)O[C@H]1C(=O)[C@@]2(C)[C@H]([C@H](OC(=O)c3ccccc3)[C@]3(O)C[C@H](OC(=O)[C@H](O)[C@@H](NC(=O)OCC)c4ccco4)C(C)=C1C3(C)C)[C@]1(OC(C)=O)CO[C@@H]1C[C@@H]2O` [Compound 3693], less than 1 nM; as for `CCCC(=O)O[C@H]1C(=O)[C@@]2(C)[C@H]([C@H](OC(=O)c3ccccc3)[C@]3(O)C[C@H](OC(=O)[C@H](O)[C@@H](NC(=O)OC(C)(C)C)c4cccnc4)C(C)=C1C3(C)C)[C@]1(OC(C)=O)CO[C@@H]1C[C@@H]2O` [Compound 0966], less than 10 nM. Take `CCC(=O)OC1C(=O)C2(C)C(O)CC3OCC3(OC(C)=O)C2C(OC(=O)c2ccccc2)C2(O)CC(OC(=O)C(O)C(C=C(C)C)NC(=O)OCC(C)C)C(C)=C1C2(C)C` (stereo not drawn) [Compound 5065]: the IC50 was less than 10 nM. Regarding `CC(=O)OC12COC1CC(O)C1(C)C(=O)C(OC(=O)C(C)C)C3=C(C)C(OC(=O)C(O)C(NC(=O)OC(C)(C)C)c4ccccn4)CC(O)(C(OC(=O)c4ccccc4)C21)C3(C)C` (stereo not drawn) [Compound 2238], the IC50 is less than 1 nM.

Regarding `CC(=O)O[C@@]12CO[C@@H]1C[C@H](O)[C@@]1(C)C(=O)[C@H](OC(=O)C3CC3)C3=C(C)[C@@H](OC(=O)[C@H](O)[C@@H](NC(=O)c4ccccc4)c4ccsc4)C[C@@](O)([C@@H](OC(=O)c4ccccc4)[C@H]21)C3(C)C` [Compound 2838], the IC50 was less than 1 nM. Consider `CCC(=O)O[C@H]1C(=O)[C@@]2(C)[C@H]([C@H](OC(=O)c3ccccc3)[C@]3(O)C[C@H](OC(=O)[C@H](O)[C@@H](NC(=O)c4ccccc4)c4ccc([N+](=O)[O-])cc4)C(C)=C1C3(C)C)[C@]1(OC(C)=O)CO[C@@H]1C[C@@H]2O` [Compound 0732], for which the IC50 is less than 10 nM.

(Values after patent EP1285920A1, “C10 Ester sustituted taxanes as antitumor agents” (Florida State University Research Foundation, Inc., priority 2001, dated 2003).)
